What is called Kd is the constant that tells how readily two partners part at equilibrium. What is called Km is the concentration of substrate that gives half-maximal velocity.

Read-outs that look alike come from different tables or passages of the source. Marks after values point to notes of the source that are not given here.

Test [1] concerns the target T1, human FPPS (Homo sapiens, UniProt P14324).
T1 sequence (P14324 1-353 isoform P14324-2): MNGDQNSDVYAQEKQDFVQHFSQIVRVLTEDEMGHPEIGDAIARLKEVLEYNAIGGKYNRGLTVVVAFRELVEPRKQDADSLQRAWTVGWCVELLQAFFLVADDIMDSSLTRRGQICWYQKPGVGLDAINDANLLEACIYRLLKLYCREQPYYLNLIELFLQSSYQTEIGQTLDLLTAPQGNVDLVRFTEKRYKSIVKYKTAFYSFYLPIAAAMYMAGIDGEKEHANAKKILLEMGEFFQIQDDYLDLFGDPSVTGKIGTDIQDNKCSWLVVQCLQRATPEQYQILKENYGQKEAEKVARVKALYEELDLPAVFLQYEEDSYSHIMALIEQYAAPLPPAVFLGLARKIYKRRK
Kind of test: Isothermal titration calorimetry (ITC) binding assay. The arrangement: His6 (N); made in house; host or cells: Escherichia coli BL21 (DE3). Here is the method:
Ligand (DMAPP, GPP and FPP) and MgCl2 solutions were prepared in the used dialysate. Each titration experiment consisted of a first 1 μl injection followed by 18 2 μl injections of a ligand solution into the 204.1 μl calorimetric cell loaded with the enzyme solution. […] When added, the concentration of MgCl2 was 5 mM. Heats of dilution were measured by injecting the ligands into the buffer alone and subtracted from the corresponding titration data. The data were fitted to the single-site-binding model implemented in the Origin software package provided with the ITC instrument.
A general note: ITC needs no label: the signal is the heat of the interaction.

Test [2] concerns the target T1, human FPPS.
Experimental: Reaction calorimetry was also carried out at 30 °C with a MicroCal iTC200 system. The enzyme and substrates were prepared in the reaction buffer (50 mM HEPES (pH 7.5), 150 mM NaCl, 2 mM MgCl2, 2 mM β-mercaptoethanol and 5% glycerol) in the same way described for the binding experiments. […] When added, FPP was preincubated together with the enzyme. The concentration of the enzyme in the cell was 400–500 nM, and those of the substrates in the syringe were 0.4–4 mM. Heats of dilution were measured and subtracted from the actual reaction data. […] Briefly, The molar reaction enthalpy (ΔH) was determined first based on the relationship:
in which Q is the total heat associated with producing n moles of product, [S0] is the starting concentration of the limiting substrate and V is the volume of the calorimetric cell. Q was calculated by integrating the thermal power (dQ/dt) measured over the complete course of reaction, whereas [S0] and V were known. Once ΔH was determined, the substrate concentration ([S]) could be determined as a function of time as described in the equation:
The rate of reaction could be calculated from dQ/dt for any given time point:
For kinetic measurements, the temporal experimental heat flow must be monitored accurately. […] Km and Vmax values were determined by fitting the rate data to the following equation[29]:
The next test deals with FPPS. The note with it: cited from earlier work.
In another test the target is N-BP-bound FPPS complex. The note with it: binding of IPP to an N-BP-bound FPPS complex; cited from earlier work.
[3] abbreviates: ITC, 30 °C, titrated in absence of Mg2+, triplicate, read-out: Kd.
The mark [4] stands for this setting: ITC, 30 °C, titrated in presence of Mg2+ (5 mM MgCl2), triplicate, read-out: Kd.
[5] abbreviates: ITC, 30 °C, titrated in absence of Mg2+, triplicate.
Where [6] appears, read: ITC, 30 °C, titrated in presence of Mg2+ (5 mM MgCl2), triplicate.

As for `CC(C)=CCC/C(C)=C/CC/C(C)=C/CO[P@@](=O)(O)OP(=O)(O)O` (stereo in doubt) [FPP, farnesyl pyrophosphate], the dissociation constant (Kd) was 5.3 ± 0.4 µM at human FPPS [1] (setting [3]); 6 ± 0.6 µM at human FPPS [1] (setting [4]); 5 to 6 µM at human FPPS [1] (summary of ITC values in absence and presence of Mg2+, read-out: Kd for binding to the allosteric pocket).

As for `CC(C)=CCOP(=O)(O)OP(=O)(O)O` [DMAPP, dimethylallyl pyrophosphate], at human FPPS [1] (setting [5]), the TΔS is 1.6 kcal/mol, the “n (molar binding ratio)” value is reported as 1 ^† and the ΔH was -4.5 ± 0.2 kcal/mol. Also, on human FPPS [1] (setting [6]), the TΔS came out at 2.1 kcal/mol, the “n (molar binding ratio)” value came out at 0.87±0.01 and the ΔH is -5.8 ± 0.1 kcal/mol. In addition, the Kd on human FPPS [1] (Kd, ITC, 30 °C, titrated in absence of Mg2+, triplicate) came to 43.7 ± 4.3 µM. Besides, the dissociation constant (Kd) on human FPPS [1] (Kd, ITC, 30 °C, titrated in presence of Mg2+ (5 mM MgCl2), triplicate) is 2.2 ± 0.2 µM.

In the case of `CC(C)=CCC/C(C)=C/CC/C(C)=C/COP(=O)(O)OP(=O)(O)O` [FPP, farnesyl pyrophosphate], the “effect on FPPS reaction rate curve (product inhibition)” value on human FPPS [2] (same excess experiment, reaction with an initial amount of FPP preincubated with enzyme) is “depressed rate curve”. Moreover, on human FPPS [1] (setting [5]), the TΔS was found to be 1.8 kcal/mol, the “n (molar binding ratio)” value is 1.12±0.01 and the ΔH was -5.5 ± 0.1 kcal/mol. On human FPPS [1] (setting [6]), the TΔS was determined as 1.7 kcal/mol, the “n (molar binding ratio)” value is given as 1.17±0.02 and the ΔH is -5.6 ± 0.1 kcal/mol.

For the compound `CC(C)=CCC/C(C)=C/COP(=O)(O)OP(=O)(O)O` [GPP, geranyl pyrophosphate], the Michaelis-Menten constant (Km) with FPPS (previously reported Km value for GPP) was 2.07 µM. Moreover, on human FPPS [1] (setting [5]), the TΔS was 1.8 kcal/mol, the “n (molar binding ratio)” value is 0.80±0.03 and the ΔH is -5.3 ± 0.2 kcal/mol. The Kd at human FPPS [1] (setting [3]) was found to be 7.6 ± 0.9 µM. Besides, on human FPPS [1] (setting [6]), the TΔS was determined as 0.2 kcal/mol, the “n (molar binding ratio)” value worked out at 0.79±0.01 and the ΔH was -7.7 ± 0.2 kcal/mol. On human FPPS [1] (setting [4]), the dissociation constant Kd is 2.1 ± 0.3 µM.

On to `C=C(C)CCO[P@@](=O)(O)OP(=O)(O)O` [IPP, isopentenyl pyrophosphate], for which the “effect on enzyme activity (substrate inhibition)” value on human FPPS [2] (experiment carried out in excess of IPP) is recorded as “significantly reduced enzyme activity”. Further, in the test on FPPS (literature value for IPP), the Km is 1.8 µM. The dissociation constant Kd at N-BP-bound FPPS complex is 0.9 µM.

Regarding `O=P(O)(O)OP(=O)(O)O` [PPi], the “binding affinity by ITC (result in words)” value on human FPPS [1] (both in the presence and absence of Mg2+) was “did not demonstrate an apparent binding event”.

Values taken from paper PMC5253651 (Nature Communications, 2017).
